Tests used:
Candida albicans = assay: preservation efficacy test (PET), European Pharmacopoeia 5.1.3; assay type: cell-based
[1] = maximum water solubility of alkanediols, visual observation; assay type: physicochemical; details: ambient temperature after 24 h storage at 5° C.
Description: The water solubility of a substance is the saturation mass concentration of the substance in water at a given temperature. The determination of the solubility in water relates to essentially pure substances which are stable in water and not volatile. The determination of the water solubility of the alkanediols is further described in the following Example 2.
For the determination of the maximum water solubility of an alkanediol, water and different concentrations of the respective alkanediol were blended by stirring. […] The determination of whether the alkanediol has dissolved in water is based entirely on visual observation.

Escherichia coli = assay: preservation efficacy test (PET), European Pharmacopoeia 5.1.3; assay type: cell-based; details: for number of microorganisms, 2 days / number of microorganisms, 7 days / number of microorganisms, 14 days / number of microorganisms, 28 days: PET, Escherichia coli (EC)
Staphylococcus aureus = assay: as above; assay type: cell-based; details: for number of microorganisms, 2 days / number of microorganisms, 7 days / number of microorganisms, 14 days / number of microorganisms, 28 days: PET, Staphylococcus aureus (SA); for number of microorganisms, 2 days: 2 days after inoculation
Aspergillus brasiliensis = assay: as above; assay type: cell-based
Pseudomonas aeruginosa = assay: as above; assay type: cell-based; details: for number of microorganisms, 2 days / number of microorganisms, 7 days / number of microorganisms, 14 days / number of microorganisms, 28 days: PET, Pseudomonas aeruginosa (PA)
[2] = PET, Candida albicans (CA), 7 days after inoculation
[3] = PET, Candida albicans (CA), 14 days after inoculation
[4] = PET, Candida albicans (CA), 28 days after inoculation
[5] = PET, Aspergillus brasiliensis (AB), 28 days after inoculation
[6] = 7 days after inoculation, o/w emulsion (Table 53)
[7] = 7 days after inoculation, substance at given % in test formulation, listed as 0.1% 4-Hydroxyacetophenone
[8] = 14 days after inoculation, o/w emulsion (Table 53)
[9] = 14 days after inoculation, substance at given % in test formulation, listed as 0.1% 4-Hydroxyacetophenone
[10] = 28 days after inoculation, o/w emulsion (Table 53)
[11] = 28 days after inoculation, substance at given % in test formulation, listed as 0.1% 4-Hydroxyacetophenone
[12] = 2 days after inoculation, o/w emulsion (Table 53)

CCCCCCCC(O)CO (stereo not drawn) [1,2-Nonanediol]
number of microorganisms, 7 days (Candida albicans; [2]): 120.000 | number of microorganisms, 14 days (Candida albicans; [3]): 890 | number of microorganisms, 28 days (Candida albicans; [4]): 1 | Maximum solubility in water [1]: 0.1 % by weight | number of microorganisms, 2 days (Escherichia coli; 2 days after inoculation): 6.700 | number of microorganisms, 7 days (Escherichia coli; 7 days after inoculation): 1 | number of microorganisms, 14 days (Escherichia coli; 14 days after inoculation): 1 | number of microorganisms, 28 days (Escherichia coli; 28 days after inoculation): 1 | number of microorganisms, 2 days (Staphylococcus aureus): 2.300 | number of microorganisms, 7 days (Staphylococcus aureus; 7 days after inoculation): 1 | number of microorganisms, 14 days (Staphylococcus aureus; 14 days after inoculation): 1 | number of microorganisms, 28 days (Staphylococcus aureus; 28 days after inoculation): 1 | number of microorganisms, 28 days (Aspergillus brasiliensis; [5]): 900.000

CC(=O)c1ccc(O)cc1 [4-Hydroxyacetophenone, reference compound]
germ count CA, 7 days (Candida albicans; [6]): 170.000 | CA germ count, 7 days (Candida albicans; [7]): 310.000 | germ count CA, 14 days (Candida albicans; [8]): 130.000 | CA germ count, 14 days (Candida albicans; [9]): 190.000 | germ count CA, 28 days (Candida albicans; [10]): 55.000 | CA germ count, 28 days (Candida albicans; [11]): 100.000 | number of microorganisms, 7 days (Candida albicans; [2]): 170.000 | number of microorganisms, 14 days (Candida albicans; [3]): 130.000 | number of microorganisms, 28 days (Candida albicans; [4]): 55.000 | germ count EC, 2 days (Escherichia coli; [12]): 110.000 | EC germ count, 2 days (Escherichia coli; 2 days after inoculation, substance at given % in test formulation, listed as 0.1% 4-Hydroxyacetophenone): 110.000 | germ count EC, 7 days (Escherichia coli; [6]): 290 | EC germ count, 7 days (Escherichia coli; [7]): 36 | germ count EC, 14 days (Escherichia coli; [8]): 27 | EC germ count, 14 days (Escherichia coli; [9]): 1 | germ count EC, 28 days (Escherichia coli; [10]): 1 | number of microorganisms, 2 days (Escherichia coli; 2 days after inoculation): 110.000 | number of microorganisms, 7 days (Escherichia coli; 7 days after inoculation): 290 | number of microorganisms, 14 days (Escherichia coli; 14 days after inoculation): 27 | number of microorganisms, 28 days (Escherichia coli; 28 days after inoculation): 1 | germ count SA, 7 days (Staphylococcus aureus; [6]): 24.000 | SA germ count, 7 days (Staphylococcus aureus; [7]): 78.000 | germ count SA, 14 days (Staphylococcus aureus; [8]): 1 | germ count SA, 28 days (Staphylococcus aureus; [10]): 1 | number of microorganisms, 7 days (Staphylococcus aureus; 7 days after inoculation): 24.000 | number of microorganisms, 14 days (Staphylococcus aureus; 14 days after inoculation): 1 | number of microorganisms, 28 days (Staphylococcus aureus; 28 days after inoculation): 1 | AB germ count, 28 days (Aspergillus brasiliensis; [11]): 910.000 | germ count PA, 2 days (Pseudomonas aeruginosa; [12]): 1 | germ count PA, 7 days (Pseudomonas aeruginosa; [6]): 1 | germ count PA, 14 days (Pseudomonas aeruginosa; [8]): 1 | germ count PA, 28 days (Pseudomonas aeruginosa; [10]): 1 | number of microorganisms, 2 days (Pseudomonas aeruginosa; 2 days after inoculation): 1 | number of microorganisms, 7 days (Pseudomonas aeruginosa; 7 days after inoculation): 1 | number of microorganisms, 14 days (Pseudomonas aeruginosa; 14 days after inoculation): 1 | number of microorganisms, 28 days (Pseudomonas aeruginosa; 28 days after inoculation): 1

CCCC(O)CO (stereo not drawn) [Hydrolite ® 5 green]
Maximum solubility in water [1]: 50 % by weight

CCCCC(O)CO (stereo not drawn) [Hydrolite ® 6]
Maximum solubility in water [1]: 50 % by weight

CCCCCCC(O)CO (stereo not drawn) [Hydrolite ® 8]
Maximum solubility in water [1]: 0.5 % by weight

COc1ccc(C(=O)O)cc1 [anisic acid, reference compound]
number of microorganisms, 2 days (Candida albicans; PET, Candida albicans (CA), 2 days after inoculation): 7.000 | number of microorganisms, 7 days (Candida albicans; [2]): 9.000 | number of microorganisms, 14 days (Candida albicans; [3]): 1 | number of microorganisms, 28 days (Candida albicans; [4]): 1 | number of microorganisms, 2 days (Escherichia coli; 2 days after inoculation): 1 | number of microorganisms, 7 days (Escherichia coli; 7 days after inoculation): 1 | number of microorganisms, 14 days (Escherichia coli; 14 days after inoculation): 1 | number of microorganisms, 28 days (Escherichia coli; 28 days after inoculation): 1 | number of microorganisms, 2 days (Staphylococcus aureus): 1 | number of microorganisms, 7 days (Staphylococcus aureus; 7 days after inoculation): 1 | number of microorganisms, 14 days (Staphylococcus aureus; 14 days after inoculation): 1 | number of microorganisms, 28 days (Staphylococcus aureus; 28 days after inoculation): 1 | number of microorganisms, 2 days (Aspergillus brasiliensis; PET, Aspergillus brasiliensis (AB), 2 days after inoculation): 650.000 | number of microorganisms, 7 days (Aspergillus brasiliensis; PET, Aspergillus brasiliensis (AB), 7 days after inoculation): 360.000 | number of microorganisms, 14 days (Aspergillus brasiliensis; PET, Aspergillus brasiliensis (AB), 14 days after inoculation): 1 | number of microorganisms, 28 days (Aspergillus brasiliensis; [5]): 1 | number of microorganisms, 2 days (Pseudomonas aeruginosa; 2 days after inoculation): 1 | number of microorganisms, 7 days (Pseudomonas aeruginosa; 7 days after inoculation): 1 | number of microorganisms, 14 days (Pseudomonas aeruginosa; 14 days after inoculation): 1 | number of microorganisms, 28 days (Pseudomonas aeruginosa; 28 days after inoculation): 1

— patent publication US20230293407A1, “Compositions Comprising (Bio)-Alkanediols with Antimicrobials for Product Protection” (Symrise AG, priority 2020, published 2023)
